# Results from PMC11375813 (ACS Omega, 2024).
# Values joined by “and” are separate entries in the source; they are usually repeats but may differ in a detail not shown here. Equal entries are not always repeated. Where two headings read alike, the source gives them in different places.
# Assays:
# [1] = target: T1, human AChE (Homo sapiens, UniProt P22303); experiment: In vitro single-concentration screening, AChE activity (adapted Ellman assay); type: biochemical; conditions: read-out: inhibition of AChE activity
# T1 construct: purchased Sigma C1682
# Method: (§1) All of the drugs were tested at a final concentration of 100 μM.
# (§2) The screening of the in silico hits toward the BChE and AChE enzymatic activity was done by an adapted high-throughput assay version of Ellman′s colorimetric assay.[59],[60] The reagents, butyrylthiocholine iodide (BTC), acetylthiocholine iodide (ATC), and 5,5′-dithiobis(2-nitrobenzoic acid) (DTNB), were purchased from Sigma-Aldrich (St. Louis, MO). The modified assay details are as previously described.[6],[44] The main modification concerned the high-throughput adaptation of the assay for use in 384-well plates. Briefly, 25 μL/well of a 1:450 diluted solution of pooled human plasma and 1:768 diluted (3.5 ng/mL final concentration) purified recombinant human AChE protein (Sigma, Cat no. C1682) was used for measurement of the BChE and AChE activity, respectively. These enzymes’ concentrations were used since they are representative of the activity of these enzymes in the human cerebrospinal fluid (CSF).
# (§3) To the control wells, the vehicle solution was added to get the reference enzyme activity (100%). (2) Then, 25 μL of a working solution of BChE or AChE was added to all wells. The plate was then incubated for 10–30 min at room temperature. (3) The reaction was then started by adding 25 μL of a cocktail mix prepared in Na/K phosphate buffer to all wells, containing DTNB (final concentration 0.4 mM) and BTC (final concentration 1 mM) or ATC (final concentration 0.5 mM). The changes in the absorbance were monitored at 412 nm wavelength for 15–20 min at 1 min intervals, using a microplate spectrophotometer reader (Infinite M1000, Tecan). The rate of the enzyme activity was determined from the slope of the linear part of the kinetic reaction curves. In all steps, the working solution concentrations were 3 times of the final concentrations of each component in the final volume of 75 μL in each well. The final screening concentration of the compounds was 100 μM. […]
# [2] = target: T1, human AChE; experiment: IC50 and enzyme inhibition kinetic analyses on AChE; type: biochemical
# From the text: as §2
# (§4) For BChE, the final BTC concentrations in the wells ranged from 5 mM to […], which were prepared as a 2-fold serial dilution. For AChE, the final ATC concentrations in the wells ranged from 0.5 mM to […], prepared as a 2-fold serial dilution series.
# (§5) In all enzyme inhibition kinetic assays, the concentrations of AChE and BChE were chosen so that the enzyme activities were representative of the activity of these enzymes in the human CSF, which is about 20 and 10 nmol/min/mL CSF for AChE and BChE, respectively.[49]
# (§6) For the enzyme inhibition kinetic analyses, the order of steps was as follows: (1) 25 μL/well of the compound or the vehicle control was added in quadruplicates, with respect to each compound concentration, in a 384-well plate. (2) Then, 25 μL of each substrate concentration was added to the wells in quadruples. (3) The reaction was then started by adding 25 μL of a master mix to all wells, containing the enzyme working solution and DTNB. The final concentration of the enzyme and DTNB as well as the buffer composition was the same as mentioned above for the screening assay. Then, the plate was immediately placed in the microplate spectrophotometer reader (Infinite M1000, Tecan) and the changes in the absorbance were continuously monitored at 2 min intervals for 15–20 min at 412 nm wavelength. The rate of the enzyme activity was extracted as the slope of the initial linear part of the kinetic reaction curves.
# The data were then transferred and processed using GraphPad Prism 9 analysis software.[15] The half-maximal inhibitory concentration (IC50) values were calculated by plotting the percentage enzyme activity versus the log concentrations of the compound. The inhibitory constant (Ki) values were determined from the enzyme inhibition kinetic analyses using the nonlinear regression function in the software. A statistical comparison of the ligand’s mode of activity was also done using GraphPad software between the competitive equation versus the mixed-competitive, noncompetitive, and uncompetitive equations.[61] A competitive mode of action means that the inhibitor reversibly binds to the substrate′s binding site. Thus, the inhibition of the enzyme is modifiable by a high concentration of the substrate via displacement. […] In the case of an uncompetitive mode of activity, the inhibitor has an affinity to the enzyme–substrate complex, but not the free enzyme. When the behavior of a ligand is not fully uniform, and the mixed-competitive fitting equation is statistically the best fitting option, the ligand is called a mixed-competitive one. This is determined through a general equation that includes the other three modes of actions. Through this equation, the software provides an additional parameter, called α, which determines the mechanism of action of the inhibitor. For instance, when α is equal to one, the inhibitor′s affinity for the free enzyme and the enzyme–substrate complex is equal, i.e., the inhibitor behaves mainly noncompetitively. […] When α is very large, the inhibitor behaves mainly as a competitive ligand. […]
# [3] = system: human recombinant ChAT; experiment: In vitro single-concentration screening against choline acetyltransferase; type: biochemical; conditions: single concentration 100 μM
# Method: as §1
# [4] = target: T2, human plasma BChE (Homo sapiens, UniProt P06276); experiment: biochemical; conditions: for Ki: inhibition constant (Ki) against human BChE
# T2 construct: 25 μL/well of a 1:450 diluted solution of pooled human plasma; from tissue; host or cells: pooled human plasma, diluted 1:450, BChE not purified
# From the text: as §2, §4, §5, §6
# The data were then transferred and processed using GraphPad Prism 9 analysis software.[15] The half-maximal inhibitory concentration (IC50) values were calculated by plotting the percentage enzyme activity versus the log concentrations of the compound. The inhibitory constant (Ki) values were determined from the enzyme inhibition kinetic analyses using the nonlinear regression function in the software. A statistical comparison of the ligand’s mode of activity was also done using GraphPad software between the competitive equation versus the mixed-competitive, noncompetitive, and uncompetitive equations.[61] A competitive mode of action means that the inhibitor reversibly binds to the substrate′s binding site. Thus, the inhibition of the enzyme is modifiable by a high concentration of the substrate via displacement. […] When the behavior of a ligand is not fully uniform, and the mixed-competitive fitting equation is statistically the best fitting option, the ligand is called a mixed-competitive one. This is determined through a general equation that includes the other three modes of actions. Through this equation, the software provides an additional parameter, called α, which determines the mechanism of action of the inhibitor. For instance, when α is equal to one, the inhibitor′s affinity for the free enzyme and the enzyme–substrate complex is equal, i.e., the inhibitor behaves mainly noncompetitively. […] When α is very large, the inhibitor behaves mainly as a competitive ligand. A very small α (but not <0) is indicative of an uncompetitive mode of action.[61]
# [5] = Plasma / in vivo drug concentrations in humans (literature pharmacokinetics); conditions: using a molecular weight of 325.39
# [6] = target: T2, human plasma BChE; experiment: biochemical; type: biochemical; conditions: single concentration 100 μM
# Method: as §1, §2, §3
# [7] = system: BChE; design: method as in PMID 17196712, PMID 16868793, PMID 20205672, PMID 19199870; conditions: at therapeutic concentrations; cited from earlier work
# [8] = system: muscarinic, histaminergic, α1-adrenergic, serotonergic, dopaminergic, and opioid receptors; conditions: radioligand binding; cited from earlier work
# [9] = system: human BChE; conditions: cited from earlier work
# [10] = target: norepinephrine uptake carrier; conditions: read-out: Ki, norepinephrine uptake carrier; radioligand binding; cited from earlier work
# [11] = cited from earlier work
# [12] = cited from earlier work; remark: listed apart in the source
# [13] = high substrate range, up to 5 mM
# [14] = micromolar substrate range (up to 0.5 mM)
# [15] = human, multiple doses of 30 mg twice daily
# T2 sequence (P06276 29-602): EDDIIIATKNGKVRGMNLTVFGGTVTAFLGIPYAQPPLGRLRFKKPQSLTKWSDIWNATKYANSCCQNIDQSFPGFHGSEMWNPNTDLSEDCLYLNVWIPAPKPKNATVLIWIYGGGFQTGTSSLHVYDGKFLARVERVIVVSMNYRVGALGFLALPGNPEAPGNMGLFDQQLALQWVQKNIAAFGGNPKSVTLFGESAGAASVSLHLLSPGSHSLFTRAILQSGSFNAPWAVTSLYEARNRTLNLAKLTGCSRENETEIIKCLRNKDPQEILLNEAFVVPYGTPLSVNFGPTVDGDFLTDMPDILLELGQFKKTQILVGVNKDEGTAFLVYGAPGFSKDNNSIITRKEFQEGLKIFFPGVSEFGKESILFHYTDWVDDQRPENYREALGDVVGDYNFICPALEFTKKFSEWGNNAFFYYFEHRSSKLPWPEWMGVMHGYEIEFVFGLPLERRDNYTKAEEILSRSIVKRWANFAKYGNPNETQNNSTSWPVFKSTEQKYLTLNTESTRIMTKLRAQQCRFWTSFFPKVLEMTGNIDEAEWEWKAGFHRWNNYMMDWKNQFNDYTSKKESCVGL
# T1 sequence (P22303 32-614): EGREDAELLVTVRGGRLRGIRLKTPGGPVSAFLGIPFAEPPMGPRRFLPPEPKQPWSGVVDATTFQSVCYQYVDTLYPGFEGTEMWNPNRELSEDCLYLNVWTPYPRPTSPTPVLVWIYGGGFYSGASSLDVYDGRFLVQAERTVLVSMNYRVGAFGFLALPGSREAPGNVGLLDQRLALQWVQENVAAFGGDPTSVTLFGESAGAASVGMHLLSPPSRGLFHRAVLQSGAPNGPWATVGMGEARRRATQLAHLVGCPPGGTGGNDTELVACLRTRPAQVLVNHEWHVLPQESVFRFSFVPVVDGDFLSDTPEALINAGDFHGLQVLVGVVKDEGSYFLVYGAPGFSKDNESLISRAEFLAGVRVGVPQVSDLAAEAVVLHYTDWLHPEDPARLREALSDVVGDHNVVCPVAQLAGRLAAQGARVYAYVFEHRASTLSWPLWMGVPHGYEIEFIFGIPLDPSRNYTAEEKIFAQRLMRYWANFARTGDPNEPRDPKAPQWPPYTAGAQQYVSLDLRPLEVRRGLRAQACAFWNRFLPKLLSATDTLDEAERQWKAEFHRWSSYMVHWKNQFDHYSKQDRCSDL
smiles,measurement,setting,value
CN(C)CCCC1(c2ccc(F)cc2)OCc2cc(C#N)ccc21 (stereo not drawn) [citalopram],inhibition at 100 µM,[1],~60%
same,Ki,[2],58800 nM
same,mode of inhibition of AChE,[2]; enzyme inhibition kinetics,noncompetitive
same,effect on the activity of human ChAT,[3],neither duloxetine nor citalopram/escitalopram affected the activity
same,BChE potency ratio Ki Escit / Ki Cit,[4]; 203/42,4.8
same,mode of inhibition of BChE,[4]; [13],mixed-competitive
same,Ki,[4]; [13],42000 nM
same,"molar concentration (maximum, from ng/mL)",[5],at most 0.86 μM
same,inhibition at 100 µM,[6],~55%
COc1cc2c(cc1OC)C(=O)C(CC1CCN(Cc3ccccc3)CC1)C2 (stereo not drawn) [donepezil],inhibitory effect on BChE,[7],completely devoid of any inhibitory effect
CNCC[C@H](Oc1cccc2ccccc12)c1cccs1 [duloxetine],"affinity for muscarinic, histaminergic, α1-adrenergic, serotonergic, dopaminergic, and opioid receptors",[8],lacks the pharmacologically relevant affinity
same,inhibition at 100 µM,[1],~35%
same,mode of inhibition of AChE,[2]; enzyme inhibition kinetics,mixed-competitive
same,Ki,"[2]; inhibition constant (Ki) against human AChE, nonlinear regression, enzyme inhibition kinetics",65500 nM and ~56500 nM
same,inhibition of human BChE,[9]; 10 μM,over 70%
same,IC50,"[9]; read-out: IC50 against human BChE, substrate and its concentration not reported",1200 nM
same,Ki,[10],2.1 nM
same,effect on the activity of human ChAT,[3],neither duloxetine nor citalopram/escitalopram affected the activity
same,IC50,[4],9700 nM
same,times as potent as physostigmine in inhibiting BChE,[4]; Ki 210 nM vs […] nM,4 times
same,mode of inhibition of BChE,[4]; [13],competitive
same,Ki,[4]; [13],~351 nM and 350 nM
same,Ki,[4]; [14],210 nM
same,mode of inhibition of BChE,[4]; [14],competitive
same,effect on cognition in the elderly,[11]; 8-week double-blind placebo-controlled trial,improved cognition
same,cognitive effect in patients with major depressive disorders,[11]; 12-week study,significant cognitive improvements across several domains
same,risk of developing dementia compared to citalopram-treated patients,"[11]; pharmacoepidemiologic study, patients with depression",significantly lower risk of developing dementia
same,inhibition of plasma BChE activity,[6],fully inhibited
same,maximum steady-state plasma concentration,[12]; [15],142 nM
same,minimum steady-state plasma concentration,[12]; [15],84 nM
same,normal in vivo concentration range in human patients,[12]; normal dosages,100 to 400 nM
same,Cmax,"[12]; read-out: plasma Cmax, human, single dose of 30–90 mg",70 to 180 nM
CN(C)CCC[C@@]1(c2ccc(F)cc2)OCc2cc(C#N)ccc21 [escitalopram],inhibition at 100 µM,[1],~60%
same,Ki,[2],32800 nM
same,AChE potency ratio Ki Cit / Ki Escit,[2]; 59/33,1.8
same,mode of inhibition of AChE,[2]; enzyme inhibition kinetics,mixed-competitive
same,effect on the activity of human ChAT,[3],neither duloxetine nor citalopram/escitalopram affected the activity
same,mode of inhibition of BChE,[4]; [13],mixed-competitive
same,Ki,[4]; [13],203000 nM
same,"molar concentration (maximum, from ng/mL)",[5],at most 0.86 μM
same,inhibition at 100 µM,[6],~10%
CCN(CC)C(C)CN1c2ccccc2Sc2ccccc21 (stereo not drawn) [ethopropazine],mode of inhibition of BChE,[4]; [13],mixed-competitive
same,Ki,[4]; [13],150 nM
same,Ki,[4]; low substrate concentrations (up to 0.5 mM),154 nM
same,Ki,[4]; [14],~155 nM
same,mode of inhibition of BChE,[4]; [14],Mixed-competitive inhibitor
COc1ccc2c3c1O[C@H]1C[C@@H](O)C=C[C@@]31CCN(C)C2 [galantamine],inhibitory effect on BChE,[7],completely devoid of any inhibitory effect
CNC(=O)Oc1ccc2c(c1)[C@]1(C)CCN(C)[C@@H]1N2C [physostigmine],mode of inhibition of BChE,[4]; [13],Competitive inhibitor
